Test system: MraY/MurG enzymes
Assay: Lipid II formation assay (coupled MraY/MurG GlcNAc transferase assay, streptavidin capture)
Assay type: biochemical, E. coli
Experimental: Bacterial membranes are used as a source of enzymes in the coupled MraY/MurG assay for the formation of Lipid II. Wild-type E. coli and MurG over-expressing constructs have been utilized as the membrane donors. Bacteria are grown in Brain Heart Infusion media supplemented with Casamino Acids (BHI/CAA) at 37° C. with aeration, to log phase (OD600=0.7) and centrifuged at 7000×g. Pellets are washed once with 50× the wet pellet weight of 5 mM Tris-HCl (pH 8.0). Pellets are resuspended at a concentration of 2 gms wet pellet/35 mls 5 mM Tris for French Press disruption. Cells are pressure treated at 20,000 psi for 1 minute in a prechilled pressure cell. The membranes generated are collected by ultracentrifugation at 200,000×g for 1 hour at 4° C. Membrane pellets are resuspended in approximately the same volume as the wet pellet weight. This generally yields a membrane concentration of roughly 5 mg/ml. Aliquots are made, and membranes frozen at −80° C. until analysis.
Reactions for the formation of Lipid II have been optimized in 1.5 ml Eppendorf tubes. […]
To the Eppendorf tubes containing the reaction mixtures, 500 ul of binding buffer (10 mM Tris-HCl (PH 8.0), 150 mM NaCl, 0.2% Triton X-100) is added. […] The resulting beads are resuspended in buffer, mixed with scintillation cocktail, and counted in a scintillation counter to determine the amount of radioactivity associated with the capture event. […]

| effect on the coupled GlcNAc transferase assay (formation of Lipid II) (FIG. 4) | Molecule | effect on formation of streptavidin-capturable radiolabeled Lipid II (100 ug/ml) |
| --- | --- | --- |
|  | moenomycin | did not affect |
| no effect | CC1(C)S[C@@H]2[C@H](NC(=O)[C@H](N)c3ccccc3)C(=O)N2[C@H]1C(=O)O [ampicillin] |  |

— patent US20010049117A1, “ANALOGS OF UDP-MURNAC PEPTIDES, ASSAYS, KITS AND RELATED METHODS OF THEIR USE” (priority 1998, published 2001)
